Laboratory results from PubChem BioAssay AID2060328 (Molecular Pharmacology Branch, DTP, NCI, 2025).
Where “and” joins values, the source holds several entries; their conditions need not be identical. Equal values may be shown once.

Tested on: MDA-MB-231 multicell spheroids, viability (%T/C)
Test: Anticancer human tumor MDA-MB-231 cell line growth inhibition [IpAb];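 further: viability read after seven days of drug exposure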;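 on viability, T/C: 100% = DMSO vehicle control viability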
Settings: for viability, T/C: stronger effect = lower value
Description: Combinatorial screen of targeted agents with ipatasertib and abemaciclib in multi-cell type tumor spheroids
A high-throughput screen of multi-cell type tumor spheroids was designed to identify active combinations of targeted small molecules and ipatasertib or abemaciclib. Complex spheroids include a stromal component modeled by human endothelial cells (HUVEC) and fibroblasts modeled by human mesenchymal stem cells (MSCs). The concentration ranges selected for each drug and investigational agent were based upon clinically achievable concentrations if the clinical Cmax of the agent was known.
Compounds. The drugs and investigational agents: ipatasertib (NSC767898), abemaciclib(NSC768073), selumetinib (NSC741078), trametinib (758246), adavosertib (NSC754352), everolimus (NSC733504), sapanisertib (NSC764658), vemurafenib (NSC761431), venetoclax (NSC766270), copanlisib (NSC809693), apelisib (NSC765974), palbociblib (NSC758247), vemurafenib (NSC761431), dabrafenib (NSC764134), ravoxertinib (NSC781343), BMS-387032 (NSC767048), sotorasib (NSC818433), talazoparib (NSC767125) and afursertib (NSC778305), were obtained from the National Cancer Institute (NCI) Developmental Therapeutics Program Chemical Repository. The FDA-approved anticancer drug set is available from the NCI Developmental Therapeutics Program. […] The stock solutions were prepared in dimethyl sulfoxide (DMSO, Sigma-Aldrich, St. Louis, MO, cat. D2650) at 800-fold the tested concentration and stored at -70 degrees C prior to their use. All drugs and investigational agents were tested over a range starting from a high concentration at or near the clinical Cmax and decreasing in half-log increments. If the clinical Cmax for an agent had not been determined, the highest concentration tested was 10 microM.
NCI60 Cell Culture. NCI60 cell lines were obtained from the NCI Developmental Therapeutics Program Tumor Repository. For each lot of cells, the Repository performed Applied Biosystems AmpFLSTR Identifiler testing with PCR amplification to confirm consistency with the published Identifier STR profile for each cell line. Cells were kept in continuous culture for no more than 20 passages. The optimal seeding densities for each of the cell lines at each time point assessed were determined prior to performing the concentration response studies. Briefly, the NCI60 human tumor lines were grown as monolayers in RPMI 1640 medium supplemented with 10% FBS and 2 mmol/L L-glutamine.
An additional 9 lines were from the NCI60 cell line panel including MDA-MB-231 breast carcinoma, MDA-MB-468 breast carcinoma, MCF7 breast carcinoma, Hs578T breast carcinoma, MALME-3M melanoma, SK-MEL-2 melanoma, SK-OV-3 ovarian carcinoma, DU-145 prostate carcinoma, PC-3 prostate carcinoma, all cell lines along with major genetic alterations are listed on Table 2. Pooled donor human umbilical vein endothelial cells (HUVEC, Lonza, cat. CC-2519) and human mesenchymal stem cells (hMSC, Lonza, cat. PT-2501) were purchased from Lonza (Walkersville, MD).
PDMR cell lines were grown in complete medium (DC medium): Dulbecco's modified Eagle's medium (DMEM)/F12 supplemented with 5% fetal bovine serum (FBS), 2 mM L-glutamine, 100 U/mL penicillin and 100 µg/ml streptomycin, 0.4 µg/ml hydrocortisone, 10 ng/ml epidermal growth factor (EGF) recombinant human protein, 24 µg/mL adenine, and 0.1 mg/mL primocin. During culture from frozen stock vials, PDMR cells were cultured in the same medium containing 10 µM Y-27632 (see Table 3). The PDCs were cultured in complete DMEM/F12 media without 10 microM Y-27632 dihydrochloride for at least two passages prior to the screen. The pooled donor HUVEC and hMSC were cultured in endothelial cell growth medium 2 (PromoCell, Heidelberg, Germany, cat. C-22011) and mesenchymal stem cell growth medium 2 (PromoCell, cat. C-28009), respectively. For all experiments, HUVEC and hMSC were used at passages </=5.
[…]

[1] = curve of first compound, second compound 0.1 µM
[2] = curve of first compound, second compound 0.316 µM
[3] = curve of first compound, second compound 1 µM
[4] = curve of first compound, second compound 3.16 µM
[5] = curve of first compound, second compound 10 µM
[6] = second compound 0.1 µM, first compound 0.000316 µM
[7] = second compound 0.1 µM, first compound 0.001 µM
[8] = second compound 0.1 µM, first compound 0.00316 µM
[9] = second compound 0.1 µM, first compound 0.01 µM
[10] = second compound 0.1 µM, first compound 0.0316 µM
[11] = second compound 0.1 µM, first compound 0.1 µM
[12] = second compound 0.316 µM, first compound 0.000316 µM
[13] = second compound 0.316 µM, first compound 0.001 µM
[14] = second compound 0.316 µM, first compound 0.00316 µM
[15] = second compound 0.316 µM, first compound 0.01 µM
[16] = second compound 0.316 µM, first compound 0.0316 µM
[17] = second compound 0.316 µM, first compound 0.1 µM
[18] = second compound 1 µM, first compound 0.000316 µM
[19] = second compound 1 µM, first compound 0.001 µM
[20] = second compound 1 µM, first compound 0.00316 µM
[21] = second compound 1 µM, first compound 0.01 µM
[22] = second compound 1 µM, first compound 0.0316 µM
[23] = second compound 1 µM, first compound 0.1 µM
[24] = second compound 3.16 µM, first compound 0.000316 µM
[25] = second compound 3.16 µM, first compound 0.001 µM
[26] = second compound 3.16 µM, first compound 0.00316 µM
[27] = second compound 3.16 µM, first compound 0.01 µM
[28] = second compound 3.16 µM, first compound 0.0316 µM
[29] = second compound 3.16 µM, first compound 0.1 µM
[30] = second compound 10 µM, first compound 0.000316 µM
[31] = second compound 10 µM, first compound 0.001 µM
[32] = second compound 10 µM, first compound 0.00316 µM
[33] = second compound 10 µM, first compound 0.01 µM
[34] = second compound 10 µM, first compound 0.0316 µM
[35] = second compound 10 µM, first compound 0.1 µM

SMILES: CCCS(=O)(=O)Nc1ccc(F)c(C(=O)c2c[nH]c3ncc(-c4ccc(Cl)cc4)cc23)c1F
- viability, T/C (compound 0.0316 µM): 112% and 109%
- viability, T/C (compound 0.1 µM): 111% and 109%
- viability, T/C (compound 0.316 µM): 106% and 112%
- viability, T/C (compound 1 µM): 100% and 104%
- viability, T/C (compound 3.16 µM): 80.9% and 79.1%
- viability, T/C (compound 10 µM): 46.6% and 41.1%
- IC50 (curve of compound): 9 µM and 7.63 µM

SMILES: CC(C)n1nc(-c2ccc3oc(N)nc3c2)c2c(N)ncnc21 + CC(C)NCC(C(=O)N1CCN(c2ncnc3c2C(C)CC3O)CC1)c1ccc(Cl)cc1
- IC50 [1]: 0.0151 µM
- IC50 [2]: 0.00564 µM
- IC50 [3]: 0.00225 µM
- IC50 [4]: 0.00058 µM
- IC50 [5]: < 0.000316 µM
- viability, T/C [6]: 90.9%
- viability, T/C [7]: 84%
- viability, T/C [8]: 68.6%
- viability, T/C [9]: 54.5%
- viability, T/C [10]: 42.5%
- viability, T/C [11]: 40.5%
- viability, T/C [12]: 86.8%
- viability, T/C [13]: 69.8%
- viability, T/C [14]: 56.4%
- viability, T/C [15]: 43.8%
- viability, T/C [16]: 38.6%
- viability, T/C [17]: 35.4%
- viability, T/C [18]: 67.4%
- viability, T/C [19]: 59%
- viability, T/C [20]: 46.1%
- viability, T/C [21]: 36.5%
- viability, T/C [22]: 31.7%
- viability, T/C [23]: 29.8%
- viability, T/C [24]: 53.3%
- viability, T/C [25]: 47%
- viability, T/C [26]: 36.9%
- viability, T/C [27]: 28.3%
- viability, T/C [28]: 26.1%
- viability, T/C [29]: 23.3%
- viability, T/C [30]: 38.3%
- viability, T/C [31]: 34.2%
- viability, T/C [32]: 27.1%
- viability, T/C [33]: 18.1%
- viability, T/C [34]: 15.2%
- viability, T/C [35]: 14.6%

SMILES: CC(C)(C)c1cnc(CSc2cnc(NC(=O)C3CCNCC3)s2)o1 + CCN1CCN(Cc2ccc(Nc3ncc(F)c(-c4cc(F)c5nc(C)n(C(C)C)c5c4)n3)nc2)CC1
- IC50 (curve of first compound, second compound 0.01 µM): 0.171 µM
- IC50 (curve of first compound, second compound 0.0316 µM): 0.148 µM
- IC50 [1]: 0.12 µM
- IC50 [2]: 0.0333 µM
- IC50 [3]: 0.0363 µM
- viability, T/C (second compound 0.01 µM, first compound 0.00949 µM): 92.2%
- viability, T/C (second compound 0.01 µM, first compound 0.03 µM): 102%
- viability, T/C (second compound 0.01 µM, first compound 0.0949 µM): 106%
- viability, T/C (second compound 0.01 µM, first compound 0.3 µM): 1.81%
- viability, T/C (second compound 0.01 µM, first compound 0.949 µM): 0.77%
- viability, T/C (second compound 0.01 µM, first compound 3 µM): 0.81%
- viability, T/C (second compound 0.0316 µM, first compound 0.00949 µM): 76.8%
- viability, T/C (second compound 0.0316 µM, first compound 0.03 µM): 82.2%
- viability, T/C (second compound 0.0316 µM, first compound 0.0949 µM): 83.9%
- viability, T/C (second compound 0.0316 µM, first compound 0.3 µM): 1.55%
- viability, T/C (second compound 0.0316 µM, first compound 0.949 µM): 0.68%
- viability, T/C (second compound 0.0316 µM, first compound 3 µM): 0.85%
- viability, T/C (second compound 0.1 µM, first compound 0.00949 µM): 59.1%
- viability, T/C (second compound 0.1 µM, first compound 0.03 µM): 63.1%
- viability, T/C (second compound 0.1 µM, first compound 0.0949 µM): 66%
- viability, T/C (second compound 0.1 µM, first compound 0.3 µM): 1.37%
- viability, T/C (second compound 0.1 µM, first compound 0.949 µM): 0.89%
- viability, T/C (second compound 0.1 µM, first compound 3 µM): 1.1%
- viability, T/C (second compound 0.316 µM, first compound 0.00949 µM): 47.4%
- viability, T/C (second compound 0.316 µM, first compound 0.03 µM): 53.4%
- viability, T/C (second compound 0.316 µM, first compound 0.0949 µM): 46.1%
- viability, T/C (second compound 0.316 µM, first compound 0.3 µM): 1.36%
- viability, T/C (second compound 0.316 µM, first compound 0.949 µM): 0.96%
- viability, T/C (second compound 0.316 µM, first compound 3 µM): 0.95%
- viability, T/C (second compound 1 µM, first compound 0.00949 µM): 52.7%
- viability, T/C (second compound 1 µM, first compound 0.03 µM): 53.4%
- viability, T/C (second compound 1 µM, first compound 0.0949 µM): 34.9%
- viability, T/C (second compound 1 µM, first compound 0.3 µM): 1.87%
- viability, T/C (second compound 1 µM, first compound 0.949 µM): 1.16%
- viability, T/C (second compound 1 µM, first compound 3 µM): 1.42%

SMILES: Cn1ncnc1[C@H]1c2n[nH]c(=O)c3cc(F)cc(c23)N[C@@H]1c1ccc(F)cc1 + CC(C)NCC(C(=O)N1CCN(c2ncnc3c2C(C)CC3O)CC1)c1ccc(Cl)cc1
- IC50 [1]: > 0.1 µM
- IC50 [2]: > 0.1 µM
- IC50 [3]: > 0.1 µM
- IC50 [4]: 0.00235 µM
- IC50 [5]: < 0.000316 µM
- viability, T/C [6]: 96.6%
- viability, T/C [7]: 89.4%
- viability, T/C [8]: 81.9%
- viability, T/C [9]: 78.9%
- viability, T/C [10]: 76.6%
- viability, T/C [11]: 73.1%
- viability, T/C [12]: 83.9%
- viability, T/C [13]: 77%
- viability, T/C [14]: 71.8%
- viability, T/C [15]: 70.1%
- viability, T/C [16]: 69.1%
- viability, T/C [17]: 62.1%
- viability, T/C [18]: 70.4%
- viability, T/C [19]: 68.9%
- viability, T/C [20]: 59.2%
- viability, T/C [21]: 58%
- viability, T/C [22]: 56.8%
- viability, T/C [23]: 56.5%
- viability, T/C [24]: 54.6%
- viability, T/C [25]: 54.3%
- viability, T/C [26]: 49.6%
- viability, T/C [27]: 44.9%
- viability, T/C [28]: 45.7%
- viability, T/C [29]: 47%
- viability, T/C [30]: 42.3%
- viability, T/C [31]: 41%
- viability, T/C [32]: 38.5%
- viability, T/C [33]: 33.8%
- viability, T/C [34]: 34.9%
- viability, T/C [35]: 34.1%

SMILES: CC(C)n1nc(-c2ccc3oc(N)nc3c2)c2c(N)ncnc21
- viability, T/C (compound 0.000316 µM): 97.7% and 101%
- viability, T/C (compound 0.001 µM): 86.1% and 104%
- viability, T/C (compound 0.00316 µM): 72.2% and 72.1%
- viability, T/C (compound 0.01 µM): 57.6% and 49.4%
- viability, T/C (compound 0.0316 µM): 46.5% and 41.5%
- viability, T/C (compound 0.1 µM): 43.5% and 37.4%
- IC50 (curve of compound): 0.0238 µM and 0.00868 µM
